Experiments:
Format in all cases: cell-based
Chlorella vulgaris [1] = experiment: Effect of chelated micronutrients on lipid accumulation (Nile Red fluorescence) in Chlorella vulgaris
Description: To assess the efficacy of chelated micronutrients on the lipid content of Chlorella vulgaris, a fresh-water green microalgae, the following experiment was conducted. Chlorella vulgaris microalgae colonies were cultured in algal culture media containing added BIOX-C, BIOX-Z, and BIOX-M as described in Example 3. Samples from each flask were taken after 9, 30, and 39 days of growth in the flasks and analyzed in triplicate to determine the lipid content of the microalgae cells. A fluorometric method was used determine cellular lipid accumulation. 4-mL culture samples were mixed with Nile Red (9-diethylamino-5H-benzophenoxazine-5-one) at a 100:1 volume ratio and allowed to stain for about seven minutes. Cytoplasmic lipids were then measured by the florescence intensity using a fluorometer (excitation 475 nm; emission 585 nm). The relative fluorescence for lipid content was obtained after subtraction of both the autofluorescence of algal cells and the self-fluorescence of the Nile Red dye from the uncorrected readings at 585 nm wavelengths.

Chlorella vulgaris [2] = experiment: Effect of chelated micronutrients on growth (cell density, spectrophotometer 450 nm) of Chlorella vulgaris; details: up to 24 days, vs control
Description: To assess the efficacy of chelated micronutrients on the growth of Chlorella vulgaris, a fresh-water green microalgae, the following experiment was conducted. Chlorella vulgaris microalgae were maintained in stock cultures as described in Example 1. The microalgae were inoculated at an initial concentration of about 10^4 cells/ml into 250 ml conical flasks containing 100 ml of an algal growth medium having a composition described in Table 3.
Three different chelated micronutrient compositions were added to the growth medium of the flasks at six different concentrations to each algal culture for final concentrations of 0 mg/ml (control), […], 10^−4 mg/ml, 10^−3 mg/ml and 10^−2 mg/ml. The metal micronutrient compositions tested were Cu-HMTBA (BIOX-C), Zn-HMTBA (BIOX-Z), and Mn-HMTBA (BIOX-M). For each concentration of a particular micronutrient composition, three duplicate flasks were tested.
The flasks containing the added compounds were cultured in a chamber in which the temperature was maintained at 21° C.-25° C. In addition, the chamber provided continuous uniform illumination with a quantum flux of 0.72 10-20 photon/m^2+/−20% in the spectral range of 400-700 nm (8000 flux). The contents of the flasks were shaken, stirred, or aerated during the experiment to facilitate the transfer of CO2 to the microalgae.
Samples from each flask were taken after 2, 7, 12, 15, 18, 21, and 24 days of growth in the flasks and analyzed in quadruplicate to determine the cell density of the microalgae. The cell density was determined using a spectrophotometer at a wavelength setting of 450 nm and using a filtered growth medium sample as a blank. The sample volume analyzed was 100 μL per well.

Chlorella vulgaris [3] = experiment: Effect of chelated micronutrients on protein content (Coomassie Blue G, 595 nm) of Chlorella vulgaris
Description: To assess the efficacy of chelated micronutrients on the protein content of Chlorella vulgaris, a fresh-water green microalgae, the following experiment was conducted. Chlorella vulgaris microalgae colonies were cultured in algal culture media containing added BIOX-C, BIOX-Z, and BIOX-M as described in Example 3.
Samples from each flask were taken after 2, 7, 12, 15, 21, and 30 days of growth in the flasks and analyzed in triplicate to determine the protein content of the microalgae cells. The protein contents of the microalgal colonies were determined by using a spectrophotometer to measure microalgal cells in which the proteins were marked with a dye. 0.04-mL culture samples were gently mixed with 2 ml of Coomassie Blue G dye in a 4 mL plastic cuvette. Cytoplasmic proteins were then measured by measuring the absorbance of the dyed sample at a wavelength of 595 nm using a […].

Dunaliella tertiolecta = experiment: Effect of chelated zinc on growth (cell density, haemocytometer) of Dunaliella tertiolecta; details: cultured with 10^−6 to 10^−2 mg/ml in f/2 medium, 18 days, vs control
Description: To assess the efficacy of adding HMTBA-chelated zinc (BIOX-Z) to the growth medium on the growth of the microalgae Dunaliella tertiolecta, the following experiment was conducted. Dunaliella tertiolecta was maintained in stock cultures in 20 ml test tubes at a cell density of about 2.5-5.0×10^4 cells/ml as seed cultures and maintained on a seven-day transfer cycle. The microalgae were inoculated into 1 L Pyrex glass Erlenmeyer flasks containing 250 ml of f/2 growth medium (Guillard 1975).
BIOX-Z was dissolved in distilled water and added at six different concentrations to each algal culture for final concentrations of 0 mg/ml (control), 10^−6 mg/ml, 10^−5 mg/ml, 10^−4 mg/ml, 10^−3 mg/ml and 10^−2 mg/ml. Each of the six test groups included 3 individual flasks.
The D. tertiolecta cells were grown in the flasks at a temperature of about 20° C. for a total of 18 days. Light was supplied to the cultures on a cycle of 12 hours of light and 12 hours of dark, at an intensity of 133-299 uEin/sec/cm^2 using a fluorescent light bulb bank (2-F20T12 Westinghouse cool white, Westinghouse Electric Corp., USA). Five samples from each of the test groups were taken each day, and the cell density of each sample was determined using a haemocytometer.

Nitzchia sp. microalgae = experiment: Effect of chelated zinc on growth (cell density) of Nitzchia sp. microalgae; details: 10^−3 mg/ml, 18 days, vs control
Description: To assess the efficacy of HMTBA-chelated zinc (BIOX-Z) on the growth of microalgae from the genus Nitzchia, the following experiment was conducted. Microalgae from the genus Nitzchia was maintained in stock cultures as described in Example 1. The microalgae were inoculated into 1 L flasks and varying amounts of BIOX-Z were added to the flasks as described in Example 1. The Nitzchia cells were grown in the flasks as described in Example 1 for a total of 18 days. Samples were taken from the flasks each day to assess the cell density as described in Example 1.

[4] = all concentrations, after 30 days of growth
[5] = 0.000001-0.0001 mg/mL, after thirty days of growth
[6] = 0.001 mg/mL, thirty days of growth
[7] = all concentrations, through the entire period of growth

| Structure (SMILES) | lipid content of Chlorella vulgaris cells (Chlorella vulgaris [1]; [4]) | growth of Chlorella vulgaris (cell density) (Chlorella vulgaris [2]; 10^−2 mg/mL) | growth of Chlorella vulgaris (cell density) (Chlorella vulgaris [2]; 10^−3 mg/mL) | growth of Chlorella vulgaris (cell density) (Chlorella vulgaris [2]; 10^−4 mg/mL) | growth of Chlorella vulgaris (cell density) (Chlorella vulgaris [2]; 10^−5 mg/mL) | growth of Chlorella vulgaris (cell density) (Chlorella vulgaris [2]; 10^−6 mg/mL) | protein content relative to control (Chlorella vulgaris [3]; [5]) | protein content relative to control (Chlorella vulgaris [3]; [6]) | other results |
| --- | --- | --- | --- | --- | --- | --- | --- | --- | --- |
| CSCCC(O)C(=O)[O-].CSCCC(O)C(=O)[O-].[Cu+2] (stereo not shown) [BIOX-C, Cu-HMTBA] | enhanced | inhibited | no effect | enhanced | enhanced | enhanced | 10-12 times the control protein content | about 4.5 times the control protein content | enhancement of microalgal lipid content compared with all compositions tested (Chlorella vulgaris [1]; 10^−2 mg/mL): largest enhancement; lipid content of Chlorella vulgaris cells (Chlorella vulgaris [1]; 10^−2 mg/mL, after 39 days of growth): higher lipid content than the control colony; lipid content of Chlorella vulgaris cells (Chlorella vulgaris [1]; 10^−3 mg/mL, after 39 days of growth): higher lipid content than the control colony; lipid content of Chlorella vulgaris cells (Chlorella vulgaris [1]; all concentrations, after 9 days of growth): enhanced; protein content of the microalgae cells (Chlorella vulgaris [3]; 0.01 mg/mL, vs control cells): inhibited; protein content relative to control (Chlorella vulgaris [3]; 10^−4 mg/mL, after thirty days of growth, largest enhancement of all compositions tested): about 12.8 times the control protein content; protein content of Chlorella vulgaris cells (Chlorella vulgaris [3]; all concentrations except 0.01 mg/mL, at twelve days of growth or longer): enhanced |
| CSCCC(O)C(=O)[O-].CSCCC(O)C(=O)[O-].[Mn+2] (stereo not shown) [BIOX-M, Mn-HMTBA] | enhanced | enhanced | inhibited | enhanced | enhanced | enhanced | 10-12 times the control protein content | 7-8 times the control protein content | lipid content of Chlorella vulgaris colonies (Chlorella vulgaris [1]; 10^−5 mg/mL, after 39 days): enhanced to a lesser degree; lipid content of Chlorella vulgaris colonies (Chlorella vulgaris [1]; 10^−6 mg/mL, after 39 days): enhanced to a lesser degree; lipid content of Chlorella vulgaris colonies (Chlorella vulgaris [1]; concentrations of less than 10^−2 mg/mL, after nine days): enhanced; protein content relative to control (Chlorella vulgaris [3]; 0.01 mg/mL, thirty days of growth): 7-8 times the control protein content; protein content of Chlorella vulgaris colonies (Chlorella vulgaris [3]; all concentrations, after 21 days or more of growth): enhanced |
| CSCCC(O)C(=O)[O-].CSCCC(O)C(=O)[O-].[Zn+2] (stereo not shown) [BIOX-Z, Zn-HMTBA] | – | no effect | enhanced | enhanced | enhanced | enhanced | – | – | lipid content of Chlorella vulgaris cells, concentration of greatest enhancement (Chlorella vulgaris [1]; 10^−3 mg/mL): most enhanced; lipid content of Chlorella vulgaris cells (Chlorella vulgaris [1]; [7]): enhanced; concentration of D. tertiolecta cells (Dunaliella tertiolecta): enhanced; concentration of Nitzchia cells (Nitzchia sp. microalgae): enhanced; protein content of Chlorella vulgaris cells, concentration of greatest enhancement (Chlorella vulgaris [3]; 10^−5 mg/mL): most enhanced; protein content relative to control (Chlorella vulgaris [3]; 10^−5 mg/mL, after 30 days of growth): over twelve times; protein content of Chlorella vulgaris cells (Chlorella vulgaris [3]; [7]): enhanced |

Reference: US20110020914A1, “METHODS FOR ENHANCING GROWTH OF ORGANISMS IN AN AQUEOUS GROWTH MEDIUM” (NOVUS INTERNATIONAL INC, priority 2009, published 2011)
